Source: PubChem BioAssay AID2060512 (Molecular Pharmacology Branch, DTP, NCI, 2025)

Test system: 186277-243-T-J2-PDC complex spheroid viability
Assay: Anticancer human tumor 186277-243-T-J2-PDC patient-derived colon adenocarcinoma cell line growth inhibition [GQUAD]
Conditions: for IC50: curve of first compound; for viability, T/C: stronger effect = lower value
Procedure, shortened: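 Tumor cells were grown as complex spheroids with HUVEC endothelial cells and mesenchymal stem cells as stroma. G-quadruplex stabilizers were combined with targeted agents over half-log dilutions from near the clinical Cmax, or from 10 microM.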

[1] = second compound 0.0316 µM, first compound 0.000999 µM
[2] = second compound 0.0316 µM, first compound 0.00316 µM
[3] = second compound 0.0316 µM, first compound 0.00999 µM
[4] = second compound 0.0316 µM, first compound 0.0316 µM
[5] = second compound 0.0316 µM, first compound 0.0999 µM
[6] = second compound 0.0316 µM, first compound 0.316 µM
[7] = second compound 0.1 µM, first compound 0.000999 µM
[8] = second compound 0.1 µM, first compound 0.00316 µM
[9] = second compound 0.1 µM, first compound 0.00999 µM
[10] = second compound 0.1 µM, first compound 0.0316 µM
[11] = second compound 0.1 µM, first compound 0.0999 µM
[12] = second compound 0.1 µM, first compound 0.316 µM
[13] = second compound 0.316 µM, first compound 0.000999 µM
[14] = second compound 0.316 µM, first compound 0.00316 µM
[15] = second compound 0.316 µM, first compound 0.00999 µM
[16] = second compound 0.316 µM, first compound 0.0316 µM
[17] = second compound 0.316 µM, first compound 0.0999 µM
[18] = second compound 0.316 µM, first compound 0.316 µM
[19] = second compound 1 µM, first compound 0.000999 µM
[20] = second compound 1 µM, first compound 0.00316 µM
[21] = second compound 1 µM, first compound 0.00999 µM
[22] = second compound 1 µM, first compound 0.0316 µM
[23] = second compound 1 µM, first compound 0.0999 µM
[24] = second compound 1 µM, first compound 0.316 µM
[25] = second compound 3.16 µM, first compound 0.000999 µM
[26] = second compound 3.16 µM, first compound 0.00316 µM
[27] = second compound 3.16 µM, first compound 0.00999 µM
[28] = second compound 3.16 µM, first compound 0.0316 µM
[29] = second compound 3.16 µM, first compound 0.0999 µM
[30] = second compound 3.16 µM, first compound 0.316 µM
[31] = second compound 10 µM, first compound 0.000999 µM
[32] = second compound 10 µM, first compound 0.00316 µM
[33] = second compound 10 µM, first compound 0.00999 µM
[34] = second compound 10 µM, first compound 0.0316 µM
[35] = second compound 10 µM, first compound 0.0999 µM
[36] = second compound 10 µM, first compound 0.316 µM
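Also: spheroids exposed to drugs for 7 days.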
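For viability, T/C in this document: 100% = DMSO vehicle control viability.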

CC[C@@]1(O)C(=O)OCc2c1cc1n(c2=O)Cc2cc3c(CN(C)C)c(O)ccc3nc2-1 + Cc1[nH]c2ccc(F)cc2c1-c1nc2c3cccnc3c3ncccc3c2[nH]1
IC50 (second compound 0.0316 µM): > 316 nM | IC50 (second compound 0.1 µM): > 316 nM | IC50 (second compound 0.316 µM): > 316 nM | IC50 (second compound 1 µM): > 316 nM | IC50 (second compound 3.16 µM): > 316 nM | IC50 (second compound 10 µM): > 316 nM | viability, T/C [1]: 97% | viability, T/C [2]: 91.6% | viability, T/C [3]: 88.2% | viability, T/C [4]: 93.9% | viability, T/C [5]: 68.2% | viability, T/C [6]: 51.6% | viability, T/C [7]: 111% | viability, T/C [8]: 106% | viability, T/C [9]: 94.2% | viability, T/C [10]: 93.7% | viability, T/C [11]: 77.9% | viability, T/C [12]: 59.6% | viability, T/C [13]: 96.3% | viability, T/C [14]: 95% | viability, T/C [15]: 92.8% | viability, T/C [16]: 89.8% | viability, T/C [17]: 78% | viability, T/C [18]: 60.7% | viability, T/C [19]: 95.3% | viability, T/C [20]: 101% | viability, T/C [21]: 94.8% | viability, T/C [22]: 103% | viability, T/C [23]: 77.7% | viability, T/C [24]: 55.7% | viability, T/C [25]: 118% | viability, T/C [26]: 94.1% | viability, T/C [27]: 109% | viability, T/C [28]: 92.9% | viability, T/C [29]: 67.4% | viability, T/C [30]: 57.4% | viability, T/C [31]: 87.9% | viability, T/C [32]: 99.9% | viability, T/C [33]: 86.8% | viability, T/C [34]: 87.3% | viability, T/C [35]: 79.8% | viability, T/C [36]: 56.1%

Cn1ncnc1[C@H]1c2n[nH]c(=O)c3cc(F)cc(c23)N[C@@H]1c1ccc(F)cc1 + CN(C)c1ccc(Nc2c3ccc(NC(=O)CCN4CCCC4)cc3nc3cc(NC(=O)CCN4CCCC4)ccc23)cc1
IC50 (second compound 0.0316 µM): > 316 nM | IC50 (second compound 0.1 µM): > 316 nM | IC50 (second compound 0.316 µM): > 316 nM | IC50 (second compound 1 µM): > 316 nM | IC50 (second compound 3.16 µM): > 316 nM | IC50 (second compound 10 µM): > 316 nM | viability, T/C [1]: 91.8% | viability, T/C [2]: 104% | viability, T/C [3]: 108% | viability, T/C [4]: 80.6% | viability, T/C [5]: 86.6% | viability, T/C [6]: 76.8% | viability, T/C [7]: 108% | viability, T/C [8]: 113% | viability, T/C [9]: 96.2% | viability, T/C [10]: 114% | viability, T/C [11]: 90.2% | viability, T/C [12]: 82% | viability, T/C [13]: 83.8% | viability, T/C [14]: 108% | viability, T/C [15]: 102% | viability, T/C [16]: 115% | viability, T/C [17]: 92.1% | viability, T/C [18]: 86.8% | viability, T/C [19]: 105% | viability, T/C [20]: 91.8% | viability, T/C [21]: 97.6% | viability, T/C [22]: 106% | viability, T/C [23]: 85.6% | viability, T/C [24]: 85% | viability, T/C [25]: 101% | viability, T/C [26]: 94.7% | viability, T/C [27]: 107% | viability, T/C [28]: 94% | viability, T/C [29]: 85.5% | viability, T/C [30]: 94.6% | viability, T/C [31]: 114% | viability, T/C [32]: 92.3% | viability, T/C [33]: 99.2% | viability, T/C [34]: 106% | viability, T/C [35]: 83.6% | viability, T/C [36]: 82%

Cc1[nH]c2ccccc2c1CCNCc1ccc(/C=C/C(=O)NO)cc1 + CN(C)c1ccc(Nc2c3ccc(NC(=O)CCN4CCCC4)cc3nc3cc(NC(=O)CCN4CCCC4)ccc23)cc1
IC50 (second compound 0.0316 µM): 58.1 nM | IC50 (second compound 0.1 µM): 55.6 nM | IC50 (second compound 0.316 µM): 58.8 nM | IC50 (second compound 1 µM): 63.2 nM | IC50 (second compound 3.16 µM): 58.3 nM | IC50 (second compound 10 µM): 58.1 nM | viability, T/C [1]: 99.5% | viability, T/C [2]: 86.5% | viability, T/C [3]: 96.7% | viability, T/C [4]: 92.6% | viability, T/C [5]: 12.1% | viability, T/C [6]: 0.65% | viability, T/C [7]: 115% | viability, T/C [8]: 93.7% | viability, T/C [9]: 80.6% | viability, T/C [10]: 84.6% | viability, T/C [11]: 14.9% | viability, T/C [12]: 0.86% | viability, T/C [13]: 76.5% | viability, T/C [14]: 96.9% | viability, T/C [15]: 91.7% | viability, T/C [16]: 87.8% | viability, T/C [17]: 17.7% | viability, T/C [18]: 2.93% | viability, T/C [19]: 86.3% | viability, T/C [20]: 94.6% | viability, T/C [21]: 87.4% | viability, T/C [22]: 107% | viability, T/C [23]: 21% | viability, T/C [24]: 1.2% | viability, T/C [25]: 93% | viability, T/C [26]: 93% | viability, T/C [27]: 96% | viability, T/C [28]: 92% | viability, T/C [29]: 13.1% | viability, T/C [30]: 1.46% | viability, T/C [31]: 82.8% | viability, T/C [32]: 92.6% | viability, T/C [33]: 97.2% | viability, T/C [34]: 96.2% | viability, T/C [35]: 12.4% | viability, T/C [36]: 0.74%
